Converted amounts (≈) assume the structure as drawn. Read-outs that look alike come from different tables or passages of the source.
Columns and labels:
Type in all cases: cell-based
A. baumannii J-143 = experiment: Antibacterial activity of sulbactam / Cefepime combinations with a compound of the invention (MIC); details: Acinetobacter baumannii
Description: (§1) The biological activity of representative compounds according to the invention against various bacterial strains was investigated. In a typical study, overnight grown bacterial cultures were diluted appropriately and inoculated on the agar media containing doubling dilutions of the test compounds. Observation for growth or no growth was performed after 16-20 hours of incubation at 35±2° C. in ambient air. The overall procedure was performed as per Clinical and Laboratory Standards Institute (CLSI) recommendations (Clinical and Laboratory Standards Institute (CLSI), Performance Standards for Antimicrobial Susceptibility Testing, 20th Informational Supplement, M 100-S20, Volume 30, No. 1, 2010).

A. baumannii 1460648 = experiment: as above
Description: as §1

A. baumannii S-334 = experiment: as above; details: Acinetobacter baumannii
Description: as §1

A. baumannii G-165 = experiment: as above; details: Acinetobacter baumannii
Description: as §1

E. coli M 50 = experiment: Antibacterial activity (MIC), agar dilution per CLSI; details: Escherichia coli, read-out: MIC
In short: (§2)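 Agar dilution, CLSI method: diluted overnight culture spotted on agar with 2-fold compound series; 16-20 h, 35±2° C., ambient air; read growth/no growth; MIC in mcg/ml.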

E. Coli M 3 = experiment: Antibacterial activity (MIC) against MDR Gram negative strains; details: Escherichia coli; Table 5; E. Coli M 3, Class B ESBL, MDR; read-out: MIC
In short: as §2

P. aeruginosa ATCC 27853 = experiment: as above; details: Pseudomonas aeruginosa, ATCC27853; Table 5; P. aeruginosa ATCC 27853; read-out: MIC
In short: as §2

E. Coli W 13352 = experiment: as above; details: Escherichia coli; Table 4; E. Coli W 13352, Class A ESBL, MDR; read-out: MIC
In short: as §2

P. aeruginosa Ps 21 = experiment: as above; details: Pseudomonas aeruginosa, PS21; Table 5; P. aeruginosa Ps 21; read-out: MIC
In short: as §2

K penumoniae H 525 = experiment: as above; details: Table 4; K penumoniae H 525, KPC ESBL, MDR; read-out: MIC
In short: as §2

E. Coli H 484 = experiment: as above; details: Escherichia coli; Table 4; E. Coli H 484, Class C ESBL, MDR; read-out: MIC
In short: as §2

E. Coli B 89 = experiment: as above; details: Escherichia coli; Table 4; E. Coli B 89, Class C ESBL, MDR; read-out: MIC
In short: as §2

K penumoniae H 521 = experiment: as above; details: Table 4; K penumoniae H 521, KPC ESBL, MDR; read-out: MIC
In short: as §2

E. Coli W 13351 = experiment: as above; details: Escherichia coli; Table 4; E. Coli W 13351, Class A ESBL, MDR; read-out: MIC
In short: as §2

E. Coli W 13353 = experiment: as above; details: Escherichia coli; Table 4; E. Coli W 13353, Class A ESBL, MDR; read-out: MIC
In short: as §2

K penumoniae H 523 = experiment: as above; details: Table 4; K penumoniae H 523, KPC ESBL, MDR; read-out: MIC
In short: as §2

E. Coli M 44 = experiment: as above; details: Escherichia coli; Table 5; E. Coli M 44, Class B ESBL, MDR; read-out: MIC
In short: as §2

P. aeruginosa Ps 32 = experiment: as above; details: Pseudomonas aeruginosa, PS32; Table 5; P. aeruginosa Ps 32; read-out: MIC
In short: as §2

K. penumoniae S 48 = experiment: as above; details: Table 5; K. penumoniae S 48, Class B ESBL, MDR; read-out: MIC
In short: as §2

[1] = system: K. pneumoniae ATCC 700603; experiment: Antibacterial activity of Ceftazidime in presence of compounds of the invention (MIC); details: Klebsiella pneumoniae, ATCC700603; Table 6; K. pneumoniae ATCC 700603 (ESBL type: Class A); Ceftazidime alone or with compound at fixed 4 mcg/ml as named in the composition
Description: as §1
(§3) The antibacterial activity of representative compounds according to the invention was also investigated in combination with at least one antibacterial agent using the above study protocol and the results are given Table 6.

P. vulgaris S-137B = experiment: as above; details: Proteus vulgaris, S137B; Table 6; P. vulgaris S-137B (ESBL type: Class C); Ceftazidime alone or with compound at fixed 4 mcg/ml as named in the composition
Description: as §1, §3

E. coli 7 MP = experiment: Antibacterial activity (MIC), agar dilution per CLSI; details: Escherichia coli, Table 3, E. coli 7 MP expressing ESBL, read-out: MIC
In short: (§4)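 Agar dilution MIC per CLSI: overnight cultures diluted and inoculated onto agar containing doubling dilutions of compound. Growth/no growth read after 16-20 h at 35±2° C in ambient air. Strains express ESBL.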

E. coli NCTC 13351 = experiment: as above; details: Escherichia coli, NCTC13351, Table 3, E. coli NCTC 13351 expressing ESBL, 16-20 hours, 35±2° C., read-out: MIC
In short: as §4

[2] = M50, Table 4, E. Coli M 50, Class C ESBL, MDR
[3] = M50, Table 3, E. coli M 50 expressing ESBL, agar dilution
[4] = J143, footnotes of Tables 7 and 8, A. baumannii J-143, substance used alone, read-out: Standalone MIC
[5] = Acinetobacter baumannii, footnotes of Tables 7 and 8, A. baumannii 1460648, substance used alone, read-out: Standalone MIC
[6] = S334, footnotes of Tables 7 and 8, A. baumannii S-334, substance used alone, read-out: Standalone MIC
[7] = G165, footnotes of Tables 7 and 8, A. baumannii G-165, substance used alone, read-out: Standalone MIC

Row | MIC (E. coli M 50; [2]) [µg/mL] | MIC (E. Coli M 3) [µg/mL] | MIC (P. aeruginosa ATCC 27853) [µg/mL] | MIC (E. Coli W 13352) [µg/mL] | MIC (P. aeruginosa Ps 21) [µg/mL] | MIC (K penumoniae H 525) [µg/mL] | MIC (E. Coli H 484) [µg/mL] | MIC (E. Coli B 89) [µg/mL] | MIC (K penumoniae H 521) [µg/mL] | MIC (E. Coli W 13351) [µg/mL] | MIC (E. Coli W 13353) [µg/mL] | MIC (K penumoniae H 523) [µg/mL] | MIC (E. Coli M 44) [µg/mL] | MIC (P. aeruginosa Ps 32) [µg/mL] | MIC (K. penumoniae S 48) [µg/mL] | MIC (E. coli M 50; [3]) [µg/mL] | MIC (A. baumannii J-143; [4]) [µg/mL] | MIC (A. baumannii 1460648; [5]) [µg/mL] | MIC (E. coli 7 MP) [µg/mL] | MIC (E. coli NCTC 13351) [µg/mL] | Structure (SMILES) | other results
1 |  |  |  |  |  |  |  |  |  |  |  |  |  |  |  |  |  |  |  |  | CO/N=C(\C(=O)N[C@@H]1C(=O)N2C(C(=O)[O-])=C(C[N+]3(C)CCCC3)CS[C@H]12)c1csc(N)n1 [Cefepime] | MIC (A. baumannii J-143; J143, Table 8, A. baumannii J-143, Cefepime alone or with sulbactam and/or compound at fixed concentrations as named in the composition, read-out: MIC of Cefepime): > 32 µg/mL; MIC (A. baumannii 1460648; Acinetobacter baumannii, Table 8, A. baumannii 1460648, Cefepime alone or with sulbactam and/or compound at fixed concentrations as named in the composition, read-out: MIC of Cefepime): > 32 µg/mL; MIC (A. baumannii S-334; S334, Table 8, A. baumannii S-334, Cefepime alone or with sulbactam and/or compound at fixed concentrations as named in the composition, read-out: MIC of Cefepime): 32 µg/mL; MIC (A. baumannii G-165; G165, Table 8, A. baumannii G-165, Cefepime alone or with sulbactam and/or compound at fixed concentrations as named in the composition, read-out: MIC of Cefepime): > 32 µg/mL
2 | > 32 | > 32 | 1 (≈ 1.83 µM) | > 32 | > 32 | > 32 | > 32 | > 32 | > 32 | 32 (≈ 58.5 µM) | 32 (≈ 58.5 µM) | > 32 | > 32 | > 32 | > 32 |  |  |  |  |  | CC(C)(O/N=C(\C(=O)N[C@@H]1C(=O)N2C(C(=O)[O-])=C(C[n+]3ccccc3)CS[C@H]12)c1csc(N)n1)C(=O)O [Ceftazidime, reference compound] | MIC [1]: > 32 µg/mL; MIC (P. vulgaris S-137B): > 32 µg/mL
3 | 0.25 (≈ 0.639 µM) | 2 (≈ 5.11 µM) | 8 (≈ 20.4 µM) | 0.25 (≈ 0.639 µM) | 8 (≈ 20.4 µM) | 0.5 (≈ 1.28 µM) | 0.12 (≈ 0.307 µM) | 0.25 (≈ 0.639 µM) | 0.5 (≈ 1.28 µM) | 0.25 (≈ 0.639 µM) | 0.12 (≈ 0.307 µM) | 1 (≈ 2.55 µM) | 0.5 (≈ 1.28 µM) | 8 (≈ 20.4 µM) | 0.5 (≈ 1.28 µM) | 0.25 (≈ 0.639 µM) | > 32 | > 32 | 1 (≈ 2.55 µM) | 0.25 (≈ 0.639 µM) | O=C(NNC(=O)[C@@H]1CC[C@@H]2CN1C(=O)N2OS(=O)(=O)O)[C@@H]1CCCNC1 [Example 2, trans-sulfuric acid mono-[2-(N′—[(R)-piperidin-3-carbonyl]-hydrazinocarbonyl)-7-oxo-1,6-diaza-bicyclo[3.2.1]oct-6-yl]ester] | MIC (A. baumannii S-334; [6]): > 32 µg/mL; MIC (A. baumannii G-165; [7]): > 32 µg/mL
4 | 0.5 (≈ 1.32 µM) | 0.5 (≈ 1.32 µM) | 2 (≈ 5.3 µM) | 0.5 (≈ 1.32 µM) | 4 (≈ 10.6 µM) | 0.5 (≈ 1.32 µM) | 0.5 (≈ 1.32 µM) | 0.25 (≈ 0.662 µM) | 0.5 (≈ 1.32 µM) | 0.5 (≈ 1.32 µM) | 0.25 (≈ 0.662 µM) | 0.5 (≈ 1.32 µM) | 0.12 (≈ 0.318 µM) | 4 (≈ 10.6 µM) | 0.5 (≈ 1.32 µM) | 0.25 (≈ 0.662 µM) | > 32 | > 32 | 1 (≈ 2.65 µM) | 0.25 (≈ 0.662 µM) | O=C(NNC(=O)[C@@H]1CC[C@@H]2CN1C(=O)N2OS(=O)(=O)O)[C@@H]1CCNC1 [Example 3, trans-sulfuric acid mono-[2-(N′—[(R)-pyrrolidin-3-carbonyl]-hydrazinocarbonyl)-7-oxo-1,6-diaza-bicyclo[3.2.1]oct-6-yl]ester] | MIC (A. baumannii S-334; [6]): > 32 µg/mL; MIC (A. baumannii G-165; [7]): > 32 µg/mL
5 | 1 | 4 | > 32 | 1 | > 32 | 1 | 8 | 1 | 2 | 1 | 1 | 1 | 0.5 | > 32 | 1 | 2 |  |  | 8 | 1 | N#CCC(=O)NNC(=O)[C@@H]1CC[C@@H]2CN1C(=O)N2OS(=O)(=O)[O-].[Na+] [Example 43, Sodium salt of trans-sulfuric acid mono-[2-(N′-(cyano-acetyl)-hydrazinocarbonyl)-7-oxo-1,6-diaza-bicyclo[3.2.1]oct-6-yl]ester] | 
6 |  |  |  |  |  |  |  |  |  |  |  |  |  |  |  |  |  |  |  |  | CC1(C)[C@H](C(=O)O)N2C(=O)C[C@H]2S1(=O)=O [Sulbactam, sulbactam] | MIC (A. baumannii J-143; J143, read-out: MIC of sulbactam): 32 µg/mL; MIC (A. baumannii J-143; J143, read-out: Standalone MIC): 32 µg/mL; MIC (A. baumannii 1460648; Acinetobacter baumannii, 1460648, read-out: MIC of sulbactam): 32 µg/mL; MIC (A. baumannii 1460648; Acinetobacter baumannii, 1460648, read-out: Standalone MIC): 32 µg/mL; MIC (A. baumannii S-334; S334, read-out: MIC of sulbactam): 32 µg/mL; MIC (A. baumannii S-334; S334, read-out: Standalone MIC): 32 µg/mL; MIC (A. baumannii G-165; G165, read-out: MIC of sulbactam): 32 µg/mL; MIC (A. baumannii G-165; G165, read-out: Standalone MIC): 32 µg/mL
